Results reported in patent US10597388B2, “Pyridazinone herbicides” (FMC CORPORATION, priority 2014, dated 2020).

Experiments:
Assay in all cases: Test D controlled growth environment herbicide test, pre- and postemergence
Assay type in all cases: in vivo
[1] = test system: blackgrass (Alopecurus myosuroides)
Procedure, shortened: (§1)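 Pre-emergence: seeds sown in silt loam soil were sprayed with compound in a non-phytotoxic solvent mix containing surfactant. Post-emergence: plants at 2 to 18 cm (1- to 4-leaf stage) in peat moss/vermiculite medium got the same formulation. Visual 0–100 rating versus controls after 14 to 21 d.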

[2] = test system: bluegrass (annual bluegrass, Poa annua)
Procedure, shortened: as §1

[3] = test system: buckwheat, wild (wild buckwheat, Polygonum convolvulus)
Procedure, shortened: as §1

[4] = test system: canarygrass (Phalaris minor)
Procedure, shortened: as §1

[5] = test system: chickweed (common chickweed, Stellaria media)
Procedure, shortened: as §1

[6] = test system: field poppy (Papaver rhoeas)
Procedure, shortened: as §1

[7] = test system: foxtail, green (green foxtail, Setaria viridis)
Procedure, shortened: as §1

[8] = test system: galium (catchweed bedstraw, Galium aparine)
Procedure, shortened: as §1

kochia (Kochia scoparia) = test system: kochia (Kochia scoparia)
Procedure, shortened: as §1

[9] = test system: pigweed (Amaranthus retroflexus)
Procedure, shortened: as §1

[10] = test system: ryegrass, Italian (Italian ryegrass, Lolium multiflorum)
Procedure, shortened: as §1

[11] = test system: wheat, winter (winter wheat, Triticum aestivum)
Procedure, shortened: as §1

[12] = Postemergence, 31 g ai/ha, scale 0 to 100 (0 no effect, 100 complete control)
[13] = Postemergence, 125 g ai/ha, visual rating on scale 0 (no effect) to 100 (complete control), 14 to 21 d
[14] = Postemergence, 250 g ai/ha, scale 0 to 100 (0 no effect, 100 complete control)
[15] = Preemergence, 62 g ai/ha, scale 0 to 100 (0 no effect, 100 complete control)
[16] = Preemergence, 125 g ai/ha, scale 0 to 100 (0 no effect, 100 complete control)
[17] = Preemergence, 250 g ai/ha, scale 0 to 100 (0 no effect, 100 complete control)
[18] = postemergence, 62 g ai/ha, scale 0 to 100, 0 no effect, 100 complete control

SMILES: Cc1ccc2sc(C)c(-c3c(O)c(C)nn(C)c3=O)c2c1 [Compound 1, 4-(2,5-dimethylbenzo[b]thien-3-yl)-5-hydroxy-2,6-dimethyl-3(2H)-pyridazinone]
- Blackgrass plant response rating [1, 12]: 40
- Plant response rating, Blackgrass [1, 13]: 70
- Plant response rating, Blackgrass [1, 14]: 80
- Plant response rating (scale of 0 to 100), Blackgrass ([1]; Preemergence, 31 g ai/ha): 35
- Plant response rating, Blackgrass [1, 15]: 70
- Plant response rating, Blackgrass [1, 16]: 85
- Blackgrass plant response rating [1, 17]: 90
- Plant response rating, Blackgrass [1, 18]: 50
- Bluegrass plant response rating [2, 12]: 0
- Plant response rating, Bluegrass [2, 13]: 5
- Plant response rating, Bluegrass [2, 14]: 5
- Plant response rating (scale of 0 to 100), Bluegrass ([2]; Preemergence, 31 g ai/ha): 5
- Plant response rating, Bluegrass [2, 15]: 15
- Plant response rating, Bluegrass [2, 16]: 35
- Bluegrass plant response rating [2, 17]: 50
- Plant response rating, Bluegrass [2, 18]: 5
- Buckwheat, Wild plant response rating [3, 12]: 70
- Plant response rating, Buckwheat, Wild [3, 13]: 100
- Plant response rating, Buckwheat, Wild [3, 14]: 100
- Plant response rating (scale of 0 to 100), Buckwheat, Wild ([3]; Preemergence, 31 g ai/ha): 5
- Plant response rating, Buckwheat, Wild [3, 15]: 10
- Plant response rating, Buckwheat, Wild [3, 16]: 65
- Plant response rating, Buckwheat, Wild [3, 17]: 100
- Plant response rating, Buckwheat, Wild [3, 18]: 75
- Canarygrass plant response rating [4, 12]: 20
- Plant response rating, Canarygrass [4, 13]: 50
- Plant response rating, Canarygrass [4, 14]: 70
- Plant response rating (scale of 0 to 100), Canarygrass ([4]; Preemergence, 31 g ai/ha): 40
- Plant response rating, Canarygrass [4, 15]: 60
- Plant response rating, Canarygrass [4, 16]: 85
- Plant response rating, Canarygrass [4, 17]: 90
- Plant response rating, Canarygrass [4, 18]: 35
- Chickweed plant response rating [5, 12]: 80
- Plant response rating, Chickweed [5, 13]: 90
- Plant response rating, Chickweed [5, 14]: 100
- Plant response rating (scale of 0 to 100), Chickweed ([5]; Preemergence, 31 g ai/ha): 100
- Plant response rating, Chickweed [5, 15]: 90
- Plant response rating, Chickweed [5, 16]: 100
- Plant response rating, Chickweed [5, 17]: 100
- Plant response rating, Chickweed [5, 18]: 80
- Field Poppy plant response rating [6, 12]: 95
- Plant response rating, Field Poppy [6, 13]: 100
- Plant response rating, Field Poppy [6, 14]: 95
- Plant response rating (scale of 0 to 100), Field Poppy ([6]; Preemergence, 31 g ai/ha): 95
- Plant response rating, Field Poppy [6, 15]: 95
- Plant response rating, Field Poppy [6, 16]: 95
- Plant response rating, Field Poppy [6, 17]: 95
- Plant response rating, Field Poppy [6, 18]: 95
- Foxtail, Green plant response rating [7, 12]: 50
- Plant response rating, Foxtail, Green [7, 13]: 75
- Plant response rating, Foxtail, Green [7, 14]: 85
- Plant response rating (scale of 0 to 100), Foxtail, Green ([7]; Preemergence, 31 g ai/ha): 10
- Plant response rating, Foxtail, Green [7, 15]: 15
- Plant response rating, Foxtail, Green [7, 16]: 75
- Plant response rating, Foxtail, Green [7, 17]: 100
- Plant response rating, Foxtail, Green [7, 18]: 65
- Galium plant response rating [8, 12]: 80
- Plant response rating, Galium [8, 13]: 95
- Plant response rating, Galium [8, 14]: 100
- Plant response rating (scale of 0 to 100), Galium ([8]; Preemergence, 31 g ai/ha): 75
- Plant response rating, Galium [8, 15]: 95
- Plant response rating, Galium [8, 16]: 100
- Plant response rating, Galium [8, 17]: 100
- Plant response rating, Galium [8, 18]: 90
- Kochia plant response rating (kochia (Kochia scoparia); [12]): 70
- Plant response rating, Kochia (kochia (Kochia scoparia); [13]): 95
- Plant response rating, Kochia (kochia (Kochia scoparia); [14]): 100
- Plant response rating (scale of 0 to 100), Kochia (kochia (Kochia scoparia); Preemergence, 31 g ai/ha): 0
- Plant response rating, Kochia (kochia (Kochia scoparia); [15]): 0
- Plant response rating, Kochia (kochia (Kochia scoparia); [16]): 35
- Plant response rating, Kochia (kochia (Kochia scoparia); [17]): 75
- Plant response rating, Kochia (kochia (Kochia scoparia); [18]): 85
- Pigweed plant response rating [9, 12]: 80
- Plant response rating, Pigweed [9, 13]: 100
- Plant response rating, Pigweed [9, 14]: 100
- Plant response rating (scale of 0 to 100), Pigweed ([9]; Preemergence, 31 g ai/ha): 70
- Plant response rating, Pigweed [9, 15]: 100
- Plant response rating, Pigweed [9, 16]: 100
- Plant response rating, Pigweed [9, 17]: 100
- Plant response rating, Pigweed [9, 18]: 90
- Ryegrass, Italian plant response rating [10, 12]: 65
- Plant response rating, Ryegrass, Italian [10, 13]: 85
- Plant response rating, Ryegrass, Italian [10, 14]: 85
- Plant response rating (scale of 0 to 100), Ryegrass, Italian ([10]; Preemergence, 31 g ai/ha): 100
- Plant response rating, Ryegrass, Italian [10, 15]: 100
- Plant response rating, Ryegrass, Italian [10, 16]: 100
- Plant response rating, Ryegrass, Italian [10, 17]: 100
- Plant response rating, Ryegrass, Italian [10, 18]: 75
- Wheat, Winter plant response rating [11, 12]: 0
- Plant response rating, Wheat, Winter [11, 13]: 0
- Plant response rating, Wheat, Winter [11, 14]: 5
- Plant response rating (scale of 0 to 100), Wheat, Winter ([11]; Preemergence, 31 g ai/ha): 0
- Plant response rating, Wheat, Winter [11, 15]: 0
- Plant response rating, Wheat, Winter [11, 16]: 5
- Plant response rating, Wheat, Winter [11, 17]: 5
- Plant response rating, Wheat, Winter [11, 18]: 0
